Experimental data: patent US20230339977A1, “SUBSTITUTED HETEROARYL COMPOUND, AND COMPOSITION AND APPLICATION THEREOF” (SUNSHINE LAKE PHARMA CO., LTD., priority 2020, published 2023)
Read-outs that look alike come from different tables or passages of the source.

Experiments:
[1] = Pharmacokinetic evaluation in rats after intravenous injection and oral administration; type: in vivo; settings: rat, plasma; for AUC(0-t): read-out: PK AUClast; for Cmax: read-out: PK Cmax; for half-life: read-out: PK T½ (converted)
Method: The analytical LC/MS/MS system includes an Agilent 1200 series vacuum degasser, a binary syringe pump, an orifice plate autosampler, a column oven, and an Agilent G6430 triple quadrupole mass spectrometer with an electrospray ionization (ESI) source.
Agilent XDB-C18, 2.1 × 30 mm, 3.5 µM column was used to analysis, 5 µL sample was injected. Analytical conditions: Mobile phases were 0.1% formic acid in water (A) and 0.1% formic acid in methanol (B). The flow rate was 0.4 mL/min.
In addition, Agilent 6330 series LC/MS/MS spectrometer was used for analysis, equipped with G1312A binary syringe pump, G1367A automatic sampler and G1314C UV detector; LC/MS/MS spectrometer used ESI radiation source. Optimum analysis was achieved using standards with appropriate cation model processing and MRM conversion for each analyte. A Capcell MP-C18 column, 100 × 4.6 mm I.D., 5 µM (Phenomenex, Torrance, California, USA) was used during the analysis. Mobile phase was 5 mM ammonium acetate, 0.1% methanol in water (A): 5 mM ammonium acetate, 0.1% methanol in acetonitrile (B) (70/30, v/v); flow rate was 0.6 mL/min; column temperature was maintained at room temperature; 20 µL of sample was injected.
The present invention evaluates the pharmacokinetic studies of the compounds of the present invention in mice, rats, dogs or monkeys. The compounds of the present invention were administered in the form of aqueous solution or 2% HPMC + 1% Tween-80 aqueous solution, 5% DMSO + 5% saline solution, 4% MC or capsule. For intravenous administration, animals were dosed at about 0.5, 0.6, 1 or 2 mg/kg. The oral doses (p.o.) were 5 or 10 mg/kg for rats and mice, and 10 mg/kg for dogs and monkeys. Bloods (0.3 mL) were taken at time points 0.25, 0.5, 1.0, 2.0, 3.0, 4.0, 6.0, 8.0, 12 and 24 h and centrifuged at 3,000 or 4,000 rpm for 10 min. Plasma solutions were collected and stored at -20° C. or -70° C. until LC/MS/MS analysis as described above. […] Table 2 is the experimental results of the pharmacokinetic characteristics of the compounds provided in the examples of the present invention in rats.

[2] = Stability in rat liver microsomes; type: in vitro ADME
Method: (§1) The stability of the compounds of the present invention in human and rat liver microsomes can be tested by the following two methods:
(§2) Human or rat liver microsomes were incubated in polypropylene tubes in duplicate wells. A typical incubation mixture included human or rat liver microsomes (0.5 mg protein/mL), target compound (5 µM), and a total volume of 200 µL of NADPH (1.0 mM) potassium phosphate buffer (PBS, 100 mM, pH 7.4), the compound was dissolved in DMSO and diluted with PBS, the final concentration of the DMSO solution was 0.05%. Human or rat liver microsomes were incubated at 37° C. in an air-connected water bath. After pre-incubation for 3 minutes, […] was added to start the reaction. The same volume of ice-cold acetonitrile was added to terminate the reaction at different time points (0, 5, 10, 15, 30 and 60 min). Samples were stored at -80° C. until LC/MS/MS analysis.
(§3) The linear concentration range of each target compound was determined, and then, the concentration of the target compounds in the human or rat liver microsomes incubation mixture was determined by LC/MS/MS method.
(§4) Parallel incubations were performed using denatured microsomes as a negative control and dextromethorphan (70 µM) as a positive control. Negative control was incubated at 37° C., the reaction was terminated at different time points (0, 15 and 60 minutes); positive control was incubated at 37° C., the reaction was terminated at different time points (0, 5, 10, 15, 30 and 60 minutes). Positive and negative control samples were used in each assay to ensure the integrity of the microsomal incubation system.
(§5) In addition, the stability data of the compounds of the present invention in human or rat liver microsomes can also be obtained from the following tests:
(§6) Human or rat liver microsomes were incubated in polypropylene tubes in duplicate wells. A typical incubation mixture included human or rat liver microsomes (final concentration: 0.5 mg protein/mL), target compound (final concentration: 1.5 µM) and a total volume of 30 µL of K-buffer solution (containing 1.0 mM EDTA, 100 mM, pH 7.4). Compounds were dissolved in DMSO and diluted with K-buffer solution, the final concentration of DMSO was 0.2%. […]
(§7) For each reaction, in vivo intrinsic hepatic clearance CLint is extrapolated by plotting the compound concentration (expressed as a percentage) in human or rat liver microsomal incubations as a percentage relative to time zero (ref.: Naritomi Y, Terashita S, Kimura S, Suzuki A, Kagayama A, Sugiyama Y. Prediction of human hepatic clearance from in vivo animal experiments and in vitro metabolic studies with liver microsomes from animals and humans. Drug Metabolism and Disposition 2001, 29: 1316-1324.).

[3] = Stability in human liver microsomes; type: in vitro ADME
Method: as §1, §2, §3, §4, §5, §6, §7

TF-1 cells = experiment: Inhibitory effect on TF-1 cell proliferation; type: cell-based; settings: Homo sapiens, alamar blue, read-out: IC50 (nM) TF-1 (h)
Method: TF-1 cells were seeded in a 96-well culture plate at a density of 20,000/well with 80 µL per well, the blank well was an equal amount of complete medium, and 10 µL of the compound dilution solution was added to the 96-well plate B1-11, C1-11, E1-11, F1-11, positive and negative wells were added with 5% DMSO medium equal to the volume of the compound, and the final concentration of DMSO was 0.5%. After 30 min, GM-CSF with a final concentration of 2 ng/mL was added to rows B, C, and D (positive wells), and the remaining wells (rows E, F, and G) were added with the same volume of medium as cytokines (negative wells). After incubation for 44 h at 37° C. in 5% CO2, alamar blue was added, the plate was incubated for 4 h, the fluorescence intensity of each well under the conditions of […], 580 nm wavelength was measured, and the IC50 value was calculated.
CTLL-2, P-STAT3 and TF-1 cells were seeded in a 96-well culture plate at a density of 20,000/well with 90 µL per well, and the blank well was an equal amount of complete medium. 10 ul of different compound dilutions were added to each plate row BC, DE, and FG, and 5% DMSO medium with equal volume of the compound was added to positive wells and negative wells, and the final concentration of DMSO was 0.5%. […]

JAK1/TYK2 = experiment: Cell level activity test of JAK1/TYK2 (IFN-α induced STAT3 phosphorylation in PBMC); type: cell-based; settings: Homo sapiens; P-STAT3 by ELISA in PBMC, compound 1 h, IFN-α 5000 U/mL 15 min; read-out: IC50 nM (JAK 1 /TYK2)
Method: IFN-α can induce the phosphorylation of STAT3 downstream of JAK1/TYK2 in PBMC, and by measuring the level of STAT3 phosphorylation, the activity of the compound on JAK1/TYK2 at the cell level can be reflected.
Whole blood was collected from healthy subjects, anticoagulated with heparin sodium, and PBMC (human peripheral blood mononuclear cells) were extracted. PBMC were seeded in a 96-well culture plates at a density of 1*106/well. Positive wells and negative wells were added with the same volume of DMSO as the compound, and the final concentration of DMSO was 0.5%. The compounds were incubated with the cells at 37° C. for 1 h, and then stimulated by adding IFN-α at a final concentration of 5000 U/mL, an equal volume of medium was added to the negative wells, and incubated for 15 min. The cells were centrifuged to remove the supernatant, then lysed, and P-STAT3 was measured according to the instructions of the ELISA kit, the absorbance was read at 450 nm, and the IC50 value or inhibition rate was calculated.

CTLL-2 cells = experiment: Inhibitory effect on CTLL-2 cell proliferation; type: cell-based; settings: alamar blue, read-out: IC50 (nM) CTLL-2 (h)
Method: CTLL-2, P-STAT3 and TF-1 cells were seeded in a 96-well culture plate at a density of 20,000/well with 90 µL per well, and the blank well was an equal amount of complete medium. 10 ul of different compound dilutions were added to each plate row BC, DE, and FG, and 5% DMSO medium with equal volume of the compound was added to positive wells and negative wells, and the final concentration of DMSO was 0.5%. After incubating in a 37° C. incubator for 20 h, alamar blue was added, the plate was incubated for 4 h, the fluorescence intensity of each well under the conditions of […], 580 nm wavelength was measured, and the IC50 value was calculated.

P-STAT3 = experiment: Effect of TYK2 inhibitor on P-STAT3 expression in PBMC induced by IFN-α (Table 3, P-STAT3 (h)); type: cell-based; settings: Homo sapiens; P-STAT3 by ELISA, PBMC stimulated with IFN-α 5000 U/mL
Method: Whole blood was collected from healthy subjects, anticoagulated with heparin sodium, and PBMC (human peripheral blood mononuclear cells) were extracted. PBMC were seeded in 96-well culture plates at a density of 1*106/well. The initial concentration of the positive drug BMS986165 was 1000 nM, after diluting 10 times, the positive drug BMS986165 was diluted 8 concentrations by 3 times; the concentration of the other tested compounds was 333 nM. Positive wells and negative wells were added with the same volume of DMSO as the compound, and the final concentration of DMSO was 0.5%. After the compound was added, the cells were incubated at 37° C. for 1 h, and then stimulated by the addition of IFN-α at a final concentration of 5000 U/mL. An equal volume of medium was added to the negative wells and incubated for 15 min. The cells were centrifuged to remove the supernatant, and lysed, and the P-STAT3 was measured according to the instructions of the ELISA kit, the absorbance was read at 450 nm, and the IC50 value or inhibition rate was calculated.
CTLL-2, P-STAT3 and TF-1 cells were seeded in a 96-well culture plate at a density of 20,000/well with 90 µL per well, and the blank well was an equal amount of complete medium. […]

[4] = pH 7.4, in vivo intrinsic hepatic clearance extrapolated

AUC(0-t) ([1]; IV 1 mg/kg)	Cmax ([1]; IV 1 mg/kg)	half-life ([1]; IV 1 mg/kg)	AUC(0-t) ([1]; PO 5 mg/kg)	Cmax ([1]; PO 5 mg/kg)	half-life ([1]; PO 5 mg/kg)	bioavailability ([1]; oral bioavailability, PO 5 mg/kg)	CLint scaled [2, 4]	half-life ([2]; rat, pH 7.4, read-out: Rat T½)	half-life ([3]; human, pH 7.4, read-out: Human T½)	CLint scaled [3, 4]	IC50 (JAK1/TYK2)	IC50 (P-STAT3)	Structure (SMILES)	IC50 (TF-1 cells)	IC50 (CTLL-2 cells)
1650 ng·h/mL	1170 ng/mL	1.24 h	8810 ng·h/mL	2650 ng/mL	3.11 h	107%	16.2 mL/min/kg	2.56 h	1.92 h	15.1 mL/min/kg	–	–	COc1cc(-c2cn(C)c3cnc(NC(C)=O)cc23)nc2c1COC21CCOC1 (stereo not drawn) [Example 1, N-(3-(4′-methoxy-4,5-dihydro-2H,5′H-spiro[furan-3,7′-furo[3,4-b]pyridin]-2′ -yl)-1-methyl-1H-pyrrolo[2,3-c]pyridin-5-yl)acetamide]	–	–
–	–	–	–	–	–	–	–	–	–	–	21.4 nM	21.4 nM	CC(=O)Nc1cc2c(-c3ccc4c(n3)C3(CCOC3)OCC4)cn(C)c2cn1 (stereo not drawn) [Example 3, N-(1-Methyl-3-(4,5,5′,6′-Tetrahydro-2H-Spiro[Furan-3,8′-Pyrano[3,4-b]Pyridine]-2′-yl)-1H-Pyrrolo[2,3-c]Pyridin-5-yl)Acetamide]	5290 nM	> 10000 nM
